Assay results reported in patent publication US20220331322A1, “COMPOUND FOR INHIBITING CELL DEATH” (Christian-Albrechts-Universität zu Kiel, priority 2019, published 2022).

Key:
RIPK1 = biological target: T1, RIPK1 (Homo sapiens, UniProt Q13546); assay: KINOMEscan profiling kinase assay
T1 sequence (Q13546 1-671): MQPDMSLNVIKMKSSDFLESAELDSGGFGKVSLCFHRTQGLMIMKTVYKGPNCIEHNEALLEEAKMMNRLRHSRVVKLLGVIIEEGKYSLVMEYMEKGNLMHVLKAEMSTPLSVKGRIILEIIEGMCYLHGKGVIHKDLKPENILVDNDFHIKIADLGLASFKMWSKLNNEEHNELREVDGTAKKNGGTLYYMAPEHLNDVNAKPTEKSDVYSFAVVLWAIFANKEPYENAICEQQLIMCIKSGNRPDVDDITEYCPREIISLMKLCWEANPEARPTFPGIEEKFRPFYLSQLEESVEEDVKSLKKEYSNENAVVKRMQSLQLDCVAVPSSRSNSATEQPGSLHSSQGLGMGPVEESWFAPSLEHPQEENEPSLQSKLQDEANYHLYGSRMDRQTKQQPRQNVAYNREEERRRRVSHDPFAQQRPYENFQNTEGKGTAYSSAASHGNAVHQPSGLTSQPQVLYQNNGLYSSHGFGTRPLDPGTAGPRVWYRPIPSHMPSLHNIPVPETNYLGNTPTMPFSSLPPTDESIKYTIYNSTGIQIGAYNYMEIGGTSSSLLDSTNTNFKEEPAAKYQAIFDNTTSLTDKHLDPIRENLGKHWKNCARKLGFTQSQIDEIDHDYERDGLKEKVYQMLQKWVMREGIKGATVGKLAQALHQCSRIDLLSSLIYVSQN
Protocol: To clarify, a KINOMEscan™ profiling kinase assay was performed. […] Dissociation constants (Kd) for test compound-kinase interactions are calculated by measuring the amount of kinase captured on the solid support as a function of the test compound concentration.

[1] = Kidney ischemia-reperfusion injury (IRI) mouse model; format: in vivo; settings: mice
Protocol: IRI is a clinically highly relevant model, since it is an unavoidable consequence after kidney transplantation and contributes to acute kidney injuries in various contexts (Müller et al., 2017). To test whether primidone could be used to suppress pathophysiological RIPK1-mediated cell death in renal IRI, mice were provided with a drinking solution containing either primidone at 2.875 mM or vehicle in the regular drinking water for five days prior to ischemia reperfusion surgery until the end of the reperfusion phase. Induction of murine kidney IRI was performed via a midline abdominal incision and bilateral renal pedicle clamping for 37 min using microaneurysm clamps (Aesculap Inc., Center Valley, Pa., USA). Throughout the surgical procedure, mice were kept under isoflurane narcosis and the body temperature was maintained at 36° C. to 37° C. by continuous monitoring using a temperature-controlled self-regulated heating system (Fine Science Tools, Heidelberg, Germany). After removal of the clamps, reperfusion of the kidneys was confirmed visually before the abdomen was closed in two layers using standard 6-0 sutures. After 48 h reperfusion, the mice were sacrificed, blood samples were taken by retrobulbar punction and organs were collected for analysis.
For histology, kidney samples freshly obtained were fixed in 4.5% neutral-buffered formaldehyde and embedded in paraffin. Sections were dewaxed, rehydrated, and subjected to Masson trichrome staining according to routine protocols. Sections were dehydrated and mounted using DePeX mounting media (Serva). Stainings were evaluated in a blinded manner using a Leica Axiovert microscope and Axio Vision SE64 Rel 4.9. software (Leica Microsystems, Wetzlar, Germany). For data presentation, mild sharpening, contrast enhancement and gamma adjustment was performed. To analyze cell death of the tissue sections, a TdT-mediated dUTP nick end labelling (TUNEL) assay was performed using a fluorescence-based detection kit according to the manufacturer's instructions (G3250, Promega). Briefly, tissue sections were dewaxed, rehydrated, fixed in 4% paraformaldehyde and permeabilized with Proteinase K for 10 min at RT. Following this, the sections were equilibrated with the provided buffer for 10 min and labeled with the TdT reaction mix for 60 min at 37° C. in a humidified dark environment. […] Fluorescence micrographs (data not shown) were acquired with a 20× and 40× objective magnifications using a standard fluorescein filter set to view the green fluorescence at 520 nm with a Leica Axiovert microscope and Axio Vision SE64 Rel 4.9 software. Quantification of TUNEL-positive cells was performed manually by two blinded observers by evaluating 8 randomly selected fields of view per slide.

L929 cells = assay: Stimulation assay: TNF-α + 5Z-7 (± zVAD) induced RIPK1-dependent apoptosis/necroptosis; format: cell-based, murine; settings: primidone 1 mM, Nec-1s 20 μM
Protocol: Murine fibroblasts (L929 cells) were stimulated for 24 h at 37° C. in the presence of (a) vehicle, (b) 10 ng/ml tumor necrosis factor alpha (TNF-α), (c) 1 μM 5Z-7-oxozeaenol (5Z-7), (d) a combination of 10 ng/ml TNF-α and 1 μM 5Z-7, (e) a combination of 10 ng/ml TNF-α, 1 μM 5Z-7, and 20 μM necrostatin-1 (Nec-1s), (f) a combination of 10 ng/ml TNF-α, 1 μM 5Z-7, and 1 mM primidone (primidone is referred to in the Figures as compound A), (g) a combination of 10 ng/ml TNF-α, 1 μM 5Z-7, and 25 μM zVAD, (h) a combination of 10 ng/ml TNF-α, 1 μM 5Z-7, and 20 μM Nec-1s, and (i) a combination of 10 ng/ml TNF-α, 1 μM 5Z-7, 25 μM zVAD, and 1 mM primidone. TNF-α is a pro-inflammatory cytokine which triggers cell survival (canonical pathway) or cell death, depending on the cellular context. 5Z-7-oxozeaenol (5Z-7) is an inhibitor of transforming growth factor activated kinase 1 (TAK1). TAK1 is an intermediate in the signaling pathway of the TNF-receptor type 1 (TNFR1), and it is known that TAK1 is essential for the prevention of TNF-induced cell death. Cells in which TAK1 is disrupted or otherwise blocked are hypersensitive to TNF-α-induced cell death due to diminished prosurvival pathways including NF-κB and reduced antioxidant enzymes which results in activation of caspases. The compound zVAD is a pan-caspase inhibitor.

[2] = primidone 2.875 mM in drinking water from 5 days before surgery, 37 min bilateral clamping, 48 h after reperfusion

CCC1(c2ccccc2)C(=O)NCNC1=O [primidone, 5-Ethyl-5-phenyl-1,3-diazinane-4,6-dione]
Binding to RIPK1 kinase domain (prevention of kinase binding to immobilized ligand) (RIPK1): does not inhibit RIPK1 by binding directly to its kinase domain
Serum concentration of creatinine [1, 2]: significantly reduced
Serum concentration of urea [1, 2]: significantly reduced
TUNEL-positive cells (cells undergoing regulated cell death) in kidney sections ([1]; primidone 2.875 mM in drinking water, 48 h reperfusion): significant reduced number of cells undergoing regulated cell death
Masson trichrome histology of renal outer medulla (tissue integrity) ([1]; primidone 2.875 mM in drinking water, 48 h reperfusion, data not shown): better preservation of tissue integrity
Block of RIPK1-dependent necroptosis (L929 cells; L929, 10 ng/ml TNF-α + 1 μM 5Z-7 + 25 μM zVAD, 24 h): able to block
Block of RIPK1-dependent apoptosis (RDA) (L929 cells; L929, 10 ng/ml TNF-α + 1 μM 5Z-7, 24 h, zVAD 25 μM): could also be blocked
